Legend:
[1] = DPPH free radical scavenging; conditions: % scavenging of DPPH at 1 μg μL^−1 concentration
human AChE = human AChE (Homo sapiens, UniProt P22303); test: Enzyme inhibition assay; format: biochemical
human BChE = human BChE (Homo sapiens, UniProt P06276); test: Enzyme inhibition assay; format: biochemical
Sequence of human BChE (P06276 29-602): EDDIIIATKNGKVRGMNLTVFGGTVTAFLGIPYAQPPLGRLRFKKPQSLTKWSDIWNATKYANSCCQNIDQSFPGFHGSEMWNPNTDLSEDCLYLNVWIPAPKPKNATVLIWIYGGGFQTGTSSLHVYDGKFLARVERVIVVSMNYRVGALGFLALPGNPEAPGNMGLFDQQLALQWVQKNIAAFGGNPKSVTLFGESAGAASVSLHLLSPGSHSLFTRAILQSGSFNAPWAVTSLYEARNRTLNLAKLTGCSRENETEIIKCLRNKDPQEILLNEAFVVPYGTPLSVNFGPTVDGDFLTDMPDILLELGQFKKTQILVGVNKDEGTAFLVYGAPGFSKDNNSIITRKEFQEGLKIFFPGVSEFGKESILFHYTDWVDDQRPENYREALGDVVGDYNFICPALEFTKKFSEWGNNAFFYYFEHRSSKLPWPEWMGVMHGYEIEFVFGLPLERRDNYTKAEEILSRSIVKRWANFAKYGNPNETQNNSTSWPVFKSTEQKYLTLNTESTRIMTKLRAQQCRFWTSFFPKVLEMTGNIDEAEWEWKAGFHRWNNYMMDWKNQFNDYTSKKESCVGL

Sequence of human AChE (P22303 32-614): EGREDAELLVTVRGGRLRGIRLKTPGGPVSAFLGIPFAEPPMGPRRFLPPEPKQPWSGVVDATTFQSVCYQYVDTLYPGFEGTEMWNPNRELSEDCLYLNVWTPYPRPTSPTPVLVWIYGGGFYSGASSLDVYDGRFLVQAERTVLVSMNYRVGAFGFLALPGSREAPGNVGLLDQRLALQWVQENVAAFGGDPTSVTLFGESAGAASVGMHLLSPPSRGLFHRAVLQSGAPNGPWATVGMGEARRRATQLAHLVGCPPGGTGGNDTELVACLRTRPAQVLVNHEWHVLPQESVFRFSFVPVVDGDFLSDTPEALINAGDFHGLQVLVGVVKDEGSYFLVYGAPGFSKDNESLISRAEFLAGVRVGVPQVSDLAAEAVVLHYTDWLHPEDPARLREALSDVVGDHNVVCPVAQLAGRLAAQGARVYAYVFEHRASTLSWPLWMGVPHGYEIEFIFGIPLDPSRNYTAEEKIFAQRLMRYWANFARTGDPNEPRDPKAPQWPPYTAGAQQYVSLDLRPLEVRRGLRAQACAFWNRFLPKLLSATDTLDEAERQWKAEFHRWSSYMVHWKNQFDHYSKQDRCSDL

SMILES	Scavenging (%) [1]	IC50 (human AChE)	IC50 (human BChE)	Scavenging (%) ([1]; listed as 4)
O=C1O[C@H]([C@@H](O)CO)C(O)=C1O [Ascorbic acid, ascorbic acid, reference compound]	96.39%			
COC(=O)c1ccccc1NC(=O)c1ccccc1 [Compound 03, methyl-2-benzamidobenzoate]	37.17%	250 ± 60 nM	210 ± 60 nM	
NNC(=O)c1ccccc1NC(=O)c1ccccc1 [Compound 04, N-(2-(hydrazinecarbonyl)phenyl)benzamide]	95.06%	27650 ± 140 nM	170 ± 120 nM	95.07%
O=C(Nc1ccccc1C(=O)N/N=C/c1ccc(Cl)cc1)c1ccccc1 [Compound 05, (E)-N-(2-(2-(4-Chlorobenzylidene)hydrazinecarbonyl)phenyl) benzamide]	35.37%	1030 ± 120 nM	1240 ± 120 nM	
O=C(Nc1ccccc1C(=O)N/N=C/c1ccc(Br)cc1)c1ccccc1 [Compound 06, (E)-N-(2-(2-(4-Bromobenzylidene)hydrazinecarbonyl)phenyl)benzamide]	15.88%	90 ± 50 nM	140 ± 50 nM	
CN(C)c1ccc(/C=N/NC(=O)c2ccccc2NC(=O)c2ccccc2)cc1 [Compound 07, (E)-N-(2-(2-(4-(Dimethylamino)benzylidene)hydrazinecarbonyl)phenyl)benzamide]	43.97%	25200 ± 210 nM		
O=C(Nc1ccccc1C(=O)N/N=C/c1ccc([N+](=O)[O-])cc1)c1ccccc1 [Compound 08, (E)-N-(2-(2-(4-Nitrobenzylidene)hydrazinecarbonyl)phenyl)benzamide]	20.20%	14800 ± 290 nM	190 ± 120 nM	
CC(C)c1ccc(/C=N/NC(=O)c2ccccc2NC(=O)c2ccccc2)cc1 [Compound 09, (E)-N-(2-(2-(4-Isopropylbenzylidene)hydrazinecarbonyl)phenyl)benzamide]	33.73%	23100 ± 250 nM		
O=C(Nc1ccccc1C(=O)N/N=C/c1ccc(O)cc1O)c1ccccc1 [Compound 10, (E)-N-(2-(2-(2,4-Dihydroxybenzylidene)hydrazinecarbonyl)phenyl)benzamide]	82.55%	18500 ± 190 nM	2150 ± 260 nM	
O=C(Nc1ccccc1C(=O)N/N=C/c1ccccc1O)c1ccccc1 [Compound 11, (E)-N-(2-(2-(2-Hydroxybenzylidene)hydrazinecarbonyl)phenyl)benzamide]	67.54%	1140 ± 350 nM	120 ± 90 nM	
COc1ccc(/C=N/NC(=O)c2ccccc2NC(=O)c2ccccc2)cc1 [Compound 12, (E)-N-(2-(2-(4-Methoxybenzylidene)hydrazinecarbonyl)phenyl)benzamide]	30.09%	20400 ± 230 nM	18340 ± 140 nM	
O=C(Nc1ccccc1C(=O)N/N=C/c1ccccc1)c1ccccc1 [Compound 13, (E)-N-(2-(2-Benzylidenehydrazinecarbonyl)phenyl)benzamide]	30.21%	110 ± 30 nM	100 ± 60 nM	

Reference: PMC8978638 (RSC Advances, 2021)
